Results taken from ChEMBL document CHEMBL2440076, “New triarylpyrazoles as broad-spectrum anticancer agents: design, synthesis, and biological evaluation” (Eur J Med Chem, 2013).
pIC50: −log10 of the molar value.

Assays:
T47D = assay: Growth inhibition of human T47D cells assessed as cell growth at 10 uM after 48 hrs by sulforhodamine B assay; format: functional; settings: read-out: Activity
[1] = Growth inhibition of human Hs 578T cells assessed as cell growth at 10 uM after 48 hrs by sulforhodamine B assay; format: functional; settings: read-out: Activity
UO-31 [2] = assay: Growth inhibition of human UO31 cells assessed as cell growth at 10 uM after 48 hrs by sulforhodamine B assay; format: functional; settings: UO-31, 48 h, read-out: Activity
PC-3 = assay: Growth inhibition of human PC3 cells assessed as cell growth at 10 uM after 48 hrs by sulforhodamine B assay; format: functional; settings: PC-3, 48 h, read-out: Activity
HCT-15 = assay: Growth inhibition of human HCT15 cells after 48 hrs by sulforhodamine B assay; format: functional; settings: HCT-15, 48 h
NCI-H460 = assay: Growth inhibition of human NCI-H460 cells after 48 hrs by sulforhodamine B assay; format: functional; settings: NCI-H460, 48 h
NCI-H23 = assay: Growth inhibition of human NCI-H23 cells after 48 hrs by sulforhodamine B assay; format: functional; settings: NCI-H23, 48 h
HOP-62 [3] = assay: Growth inhibition of human HOP62 cells after 48 hrs by sulforhodamine B assay; format: functional; settings: HOP-62, 48 h
SR = assay: Growth inhibition of human SR cells after 48 hrs by sulforhodamine B assay; format: functional
MOLT-4 = assay: Growth inhibition of human MOLT4 cells after 48 hrs by sulforhodamine B assay; format: functional; settings: MOLT-4, 48 h
CCRF-CEM = assay: Growth inhibition of human CCRF-CEM cells after 48 hrs by sulforhodamine B assay; format: functional
SK-OV-3 = assay: Growth inhibition of human SKOV3 cells assessed as cell growth at 10 uM after 48 hrs by sulforhodamine B assay; format: functional; settings: SK-OV-3, 48 h, read-out: Activity
[4] = Growth inhibition of human NCI-ADR-RES cells assessed as cell growth at 10 uM after 48 hrs by sulforhodamine B assay; format: functional; settings: read-out: Activity
OVCAR-5 [5] = assay: Growth inhibition of human OVCAR5 cells assessed as cell growth at 10 uM after 48 hrs by sulforhodamine B assay; format: functional; settings: OVCAR-5, 48 h, read-out: Activity
OVCAR-8 [6] = assay: Growth inhibition of human OVCAR8 cells assessed as cell growth at 10 uM after 48 hrs by sulforhodamine B assay; format: functional; settings: OVCAR-8, 48 h, read-out: Activity
OVCAR-3 = assay: Growth inhibition of human OVCAR3 cells assessed as cell growth at 10 uM after 48 hrs by sulforhodamine B assay; format: functional; settings: OVCAR-3, 48 h, read-out: Activity
U-251 [7] = assay: Growth inhibition of human U251 cells assessed as cell growth at 10 uM after 48 hrs by sulforhodamine B assay; format: functional; settings: U-251, 48 h, read-out: Activity
SF-268 [8] = assay: Growth inhibition of human SF268 cells assessed as cell growth at 10 uM after 48 hrs by sulforhodamine B assay; format: functional; settings: SF-268, 48 h, read-out: Activity
COLO 205 = assay: Growth inhibition of human COLO205 cells assessed as cell growth at 10 uM after 48 hrs by sulforhodamine B assay; format: functional; settings: COLO 205, 48 h, read-out: Activity
NCI-H522 = assay: Growth inhibition of human NCI-H522 cells assessed as cell growth at 10 uM after 48 hrs by sulforhodamine B assay; format: functional; settings: NCI-H522, 48 h, read-out: Activity
UO-31 [9] = assay: Growth inhibition of human UO31 cells after 48 hrs by sulforhodamine B assay; format: functional; settings: UO-31, 48 h
CAKI-1 = assay: Growth inhibition of human CAKI-1 cells after 48 hrs by sulforhodamine B assay; format: functional; settings: CAKI-1, 48 h
786-0 = assay: Growth inhibition of human 786-0 cells after 48 hrs by sulforhodamine B assay; format: functional; settings: 786-0, 48 h
OVCAR-8 [10] = assay: Growth inhibition of human OVCAR8 cells after 48 hrs by sulforhodamine B assay; format: functional; settings: OVCAR-8, 48 h
[11] = Growth inhibition of human NCI-ADR-RES cells after 48 hrs by sulforhodamine B assay; format: functional
OVCAR-5 [12] = assay: Growth inhibition of human OVCAR5 cells after 48 hrs by sulforhodamine B assay; format: functional; settings: OVCAR-5, 48 h
OVCAR-4 = assay: Growth inhibition of human OVCAR4 cells after 48 hrs by sulforhodamine B assay; format: functional; settings: OVCAR-4, 48 h
SK-MEL-5 = assay: Growth inhibition of human SK-MEL-5 cells after 48 hrs by sulforhodamine B assay; format: functional; settings: SK-MEL-5, 48 h
MDA-MB-435 = assay: Growth inhibition of human MDA-MB-435 cells after 48 hrs by sulforhodamine B assay; format: functional, cell-based; settings: MDA-MB-435, 48 h
M14 = assay: Growth inhibition of human M14 cells after 48 hrs by sulforhodamine B assay; format: functional; settings: M14, 48 h
Malme-3M = assay: Growth inhibition of human MALME-3M cells after 48 hrs by sulforhodamine B assay; format: functional
U-251 [13] = assay: Growth inhibition of human U251 cells after 48 hrs by sulforhodamine B assay; format: functional; settings: U-251, 48 h
SF-268 [14] = assay: Growth inhibition of human SF268 cells after 48 hrs by sulforhodamine B assay; format: functional; settings: SF-268, 48 h
HOP-62 [15] = assay: Growth inhibition of human HOP62 cells assessed as cell growth at 10 uM after 48 hrs by sulforhodamine B assay; format: functional; settings: HOP-62, 48 h, read-out: Activity
HL-60(TB) = assay: Growth inhibition of human HL-60(TB) cells assessed as cell growth at 10 uM after 48 hrs by sulforhodamine B assay; format: functional; settings: HL-60, 48 h, read-out: Activity
[16] = read-out: LC50 (the source's name)

COc1cc(-c2nn(-c3cccc(NC(=O)c4ccc(Cl)c(C(F)(F)F)c4)c3)cc2-c2ccncc2)ccc1Cl
growth at 10 µM (T47D): 26.2%
growth at 10 µM [1]: 34.7%
growth at 10 µM (UO-31 [2]): 37.1%
growth at 10 µM (PC-3): 18.6%
GI50 (HCT-15): 3.25 µM
LC50 (HCT-15): > 32.5 µM
TGI (HCT-15): > 32.5 µM
GI50 (NCI-H460): 3.47 µM
LC50 (NCI-H460): > 32.5 µM
TGI (NCI-H460): > 32.5 µM
GI50 (NCI-H23): 5.39 µM
LC50 (NCI-H23): > 32.5 µM
TGI (NCI-H23): > 32.5 µM
GI50 (HOP-62 [3]): 13.1 µM
TGI (HOP-62 [3]): > 32.5 µM
CC50 (HOP-62 [3]; [16]): > 32.5 µM
GI50 (SR): 0.848 µM
TGI (SR): > 32.5 µM
CC50 (SR; [16]): > 32.5 µM
GI50 (MOLT-4): 5.24 µM
TGI (MOLT-4): > 32.5 µM
CC50 (MOLT-4; [16]): > 32.5 µM
GI50 (CCRF-CEM): 1.77 µM
LC50 (CCRF-CEM): > 32.5 µM
TGI (CCRF-CEM): > 32.5 µM
growth at 10 µM (SK-OV-3): 64.3%
growth at 10 µM [4]: 13.4%
growth at 10 µM (OVCAR-5 [5]): 91.3%
growth at 10 µM (OVCAR-8 [6]): 38.9%
growth at 10 µM (OVCAR-3): 19.5%
growth at 10 µM (U-251 [7]): 32.5%
growth at 10 µM (SF-268 [8]): 46.7%
growth at 10 µM (COLO 205): 69.4%
growth at 10 µM (NCI-H522): 1.5%
GI50 (UO-31 [9]): 0.267 µM
TGI (UO-31 [9]): > 32.5 µM
CC50 (UO-31 [9]; [16]): > 32.5 µM
GI50 (CAKI-1): 2.3 µM
TGI (CAKI-1): > 32.5 µM
CC50 (CAKI-1; [16]): > 32.5 µM
GI50 (786-0): 11 µM
TGI (786-0): > 32.5 µM
CC50 (786-0; [16]): > 32.5 µM
GI50 (OVCAR-8 [10]): 3.35 µM
TGI (OVCAR-8 [10]): > 32.5 µM
CC50 (OVCAR-8 [10]; [16]): > 32.5 µM
GI50 [11]: 1.29 µM
TGI [11]: 11.2 µM
CC50 [11, 16]: > 32.5 µM
GI50 (OVCAR-5 [12]): > 32.5 µM
LC50 (concentration killing 50% of cells) (OVCAR-5 [12]): > 32.5 µM
TGI (OVCAR-5 [12]): > 32.5 µM
GI50 (OVCAR-4): 8.04 µM
LC50 (concentration killing 50% of cells) (OVCAR-4): > 32.5 µM
TGI (OVCAR-4): > 32.5 µM
GI50 (SK-MEL-5): 1.38 µM
LC50 (concentration killing 50% of cells) (SK-MEL-5): 31.8 µM
TGI (SK-MEL-5): 6.87 µM
GI50 (MDA-MB-435): 0.664 µM
pIC50 (MDA-MB-435): 6.18
TGI (MDA-MB-435): 1.74 µM
CC50 (MDA-MB-435; [16]): 24.7 µM
GI50 (M14): 2.79 µM
LC50 (concentration killing 50% of cells) (M14): > 32.5 µM
TGI (M14): > 32.5 µM
GI50 (Malme-3M): 1.18 µM
LC50 (concentration killing 50% of starting cells) (Malme-3M): > 32.5 µM
TGI (Malme-3M): 19.7 µM
GI50 (U-251 [13]): 3.1 µM
LC50 (concentration killing 50% of cells) (U-251 [13]): > 32.5 µM
TGI (U-251 [13]): > 32.5 µM
GI50 (SF-268 [14]): 4.86 µM
TGI (SF-268 [14]): > 32.5 µM
CC50 (SF-268 [14]; [16]): > 32.5 µM
growth at 10 µM (HOP-62 [15]): 53%
growth at 10 µM (HL-60(TB)): 3.23%
